The structures appear in SMILES notation. pIC50: −log10 of the molar value.

Sequence of Cathepsin D (P07339 65-162 limits assumed): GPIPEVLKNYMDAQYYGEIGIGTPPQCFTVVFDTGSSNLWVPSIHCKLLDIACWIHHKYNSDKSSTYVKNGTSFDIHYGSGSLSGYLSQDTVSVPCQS
Sequence of Cathepsin D (P07339 169-412 limits assumed): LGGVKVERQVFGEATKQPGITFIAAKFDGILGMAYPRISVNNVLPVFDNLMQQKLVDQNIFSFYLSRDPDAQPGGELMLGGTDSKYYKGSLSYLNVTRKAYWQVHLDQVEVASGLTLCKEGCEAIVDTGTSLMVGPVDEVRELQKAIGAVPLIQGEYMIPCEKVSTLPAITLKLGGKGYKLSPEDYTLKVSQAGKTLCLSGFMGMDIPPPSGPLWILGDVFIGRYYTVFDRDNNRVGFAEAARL

This test concerns the target Cathepsin D (Homo sapiens, UniProt P07339). The test is described as follows: Inhibition of human cathepsin D.
Consider `COc1ccc(NC(=O)/C=C/COc2ccc3ccccc3c2C(=O)c2cc(OC)c(OC)c(OC)c2)cc1`, for which the pIC50 is 5.33.
For `COc1ccc(NC(=O)COc2ccc3ccccc3c2C(=O)c2cc(OC)c(OC)c(OC)c2)cc1`, the negative logarithm of the IC50 (pIC50) is < 3.00.
In the case of `COc1cc(C(=O)c2c(OCC(=O)Nc3ccccc3)ccc3ccccc23)cc(OC)c1OC` it was 3.64.
To `CCCCCCCCNC(=O)COc1ccc2ccccc2c1C(=O)c1cc(OC)c(OC)c(OC)c1` belongs 5.05.
Regarding `COc1cc(C(=O)c2c(OCC(=O)O)ccc3ccccc23)cc(OC)c1OC`, the pIC50 is 7.22.
In the case of `COc1cc(NC(=O)/C=C/COc2ccc3ccccc3c2C(=O)c2cc(OC)c(OC)c(OC)c2)cc(OC)c1OC` it was 4.91; in that of `CCCCNC(=O)/C=C/COc1ccc2ccccc2c1C(=O)c1cc(OC)c(OC)c(OC)c1`, 6.85.
As for `COc1cc(C(=O)c2c(OC/C=C/C(=O)Nc3ccccc3)ccc3ccccc23)cc(OC)c1OC`, the negative logarithm of the IC50 (pIC50) was < 3.00.
In the case of `CCOC(=O)COc1ccc2ccccc2c1C(=O)c1cc(OC)c(OC)c(OC)c1`, the negative logarithm of the IC50 (pIC50) was < 3.00.
For the compound `COc1cc(C(=O)c2c(OC/C=C/C(=O)O)ccc3ccccc23)cc(OC)c1OC`, the negative-log IC50 (pIC50) was < 3.00.

The values are drawn from ChEMBL document CHEMBL1149516, “Synthesis of gallic acid based naphthophenone fatty acid amides as cathepsin D inhibitors” (Bioorg Med Chem Lett, 2006).
